Test [1] concerns UGT activity in human liver microsomes (HLM). The test can be described thus: Inhibition of UGT activity in human liver microsomes by diclofenac (titration), probe compound 3138. The class given is biochemical. The following applies: 0.1 mg/mL HLM, 50 μM compound 3138, 15 minutes at 37° C.; read-out: EC50, inhibition of HLM utilization of compound 3138. On the procedure:
The invention includes a method of determining activity of the uridine 5′-diphospho-glucuronosyltransferase (UDP-glucuronosyltransferase, or UGT) family enzymes in vitro. Briefly, UGT enzymes from overexpressed insect microsomes (Supersomes™, BD Gentest™) or animal tissue microsomes (Xenotech, BD Gentest™) were incubated with a cyanobenzothiazole substrate of the invention and the cofactor UDP-glucuronic acid (UDPGA) at 37° C. in buffer at physiological pH containing MgCl2 and alamethicin (typically, 50 mM TES, pH 7.5, 8 mM MgCl2, 4 mM UDPGA (Sigma) and 25 μg/mL alamethicin (Sigma)). […]
(§1) During this incubation, the cysteine reacts with the cyanobenzathiozole substrate to yield a D-luciferin derivative. […] Therefore, activity of the UGT enzyme can be measured by analyzing the difference (lower or no output) in relative light units (RLU) of a sample in which glucuronidation occurs compared to a sample that was run under the same conditions with no added UDPGA cofactor.
All reactions contained 50 mM TES, pH 7.5, 8 mM MgCl2, 25 μg/mL alamethicin, 0.1 mg/mL HLM, and 50 μM compound 3138, plus or minus 4 mM UDPGA. […] After 20 minutes at room temperature, RLU were read on a luminometer.

Test [2] has as its system UGT isozymes. The following applies: cited from earlier work.
For test [3], the target named is T1, UGT 1A1 (Homo sapiens, UniProt P22309).
T1 construct: purchased BD Gentest; host or cells: insect cells (microsomes)
T1 sequence (P22309 26-533): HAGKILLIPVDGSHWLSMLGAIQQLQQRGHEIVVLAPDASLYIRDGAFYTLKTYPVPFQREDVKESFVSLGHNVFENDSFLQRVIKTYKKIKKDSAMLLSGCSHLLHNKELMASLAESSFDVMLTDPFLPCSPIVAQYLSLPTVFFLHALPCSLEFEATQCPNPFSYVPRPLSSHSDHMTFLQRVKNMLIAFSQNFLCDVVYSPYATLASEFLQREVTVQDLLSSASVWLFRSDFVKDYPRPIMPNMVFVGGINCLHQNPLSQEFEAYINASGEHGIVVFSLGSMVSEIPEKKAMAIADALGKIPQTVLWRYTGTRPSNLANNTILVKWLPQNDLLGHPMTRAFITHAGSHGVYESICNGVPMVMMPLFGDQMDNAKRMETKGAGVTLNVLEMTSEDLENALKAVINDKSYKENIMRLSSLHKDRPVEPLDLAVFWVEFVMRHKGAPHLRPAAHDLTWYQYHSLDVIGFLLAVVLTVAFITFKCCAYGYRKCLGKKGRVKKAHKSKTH
The test can be described thus: Inhibition of recombinant UGT 1A1 supersomes by diclofenac, probe compound 3138. The class given is biochemical. The following applies: 0.1 mg/mL Supersomes, 20 μM compound 3138, 90 minutes at 37° C. On the procedure: The invention includes a method of determining activity of the uridine 5′-diphospho-glucuronosyltransferase (UDP-glucuronosyltransferase, or UGT) family enzymes in vitro. […] Following the UGT enzyme reaction, an equal volume of P450-Glo Luciferin Detection Reagent (Promega) containing 15-30 mM D-cysteine-HCl.H2O (Sigma) was added and the plate was mixed and incubated at room temperature, typically for 20-30 minutes. P450-Glo Luciferin Detection Reagent can be prepared by dissolving a vial of Promega Luciferin Detection Reagent (Promega Part #V859B) with a vial of Promega P450-Glo Buffer (Promega Part #V865B).
as §1

SMILES strings stand for the structures.

In the case of `O=C(O)Cc1ccccc1Nc1c(Cl)cccc1Cl` [Diclofenac], the EC50 in test [1] was found to be 60 µM. Also, the “Isozymes Modulated” value in test [2] (isozymes currently reported in the literature to be modulated by the compound) is “Inhibits most isozymes”. Moreover, in test [2] (literature report), the “inhibition of UGT isozymes as reported in the literature” value was “reported to inhibit UGT 1A1, 1A3, 1A6, 1A7, 1A8, 1A9, 1A10, 2B7, 2B15, and 2B17”. Also, the IC50 in test [3] stood at 232 µM.

The values above are taken from patent US8551721B2, “Bioluminescent detection of cyanohydroxy benzothiazole compounds” (Promega Corporation, priority 2008, dated 2013).
